Laboratory results from US4609736A, “Rhodanines useful as a therapeutic agent for diabetic complications” (Kaken Pharmaceutical Co., Ltd., priority 1983, dated 1986).
pIC50: −log10 of the molar value. Where two headings read alike, the source gives them in different places.

Tests used:
[1] = test system: thrombin-induced aggregation of washed rabbit platelets; assay: Platelet aggregation inhibiting activity (thrombin-induced aggregation of washed rabbit platelets); assay type: cell-based, rabbit (albino, white local breed); conditions: for pIC50: Oryctolagus cuniculus, Platelet, Table 2; for platelet aggregation inhibiting activity relative to Dipyridamole (Persantine): times that of Dipyridamole
Method: Blood samples were collected from the auricular blood vessel of albino rabbits (white local breed), and washed platelets were prepared therefrom by the method of Baenziger et al. [N. L. Baenziger and P. W. Majerus, Methods in Enzymology, 31, 149 to 155 (1974)]. The platelets were suspended in a 15 mM Tris-hydrochloric acid buffer in a final concentration of 6×10^8 cells/ml (Tris: tris(hydroxymethyl)aminomethane). Each test compound was added thereto and incubation was carried out at 37° C. for 2 minutes. Then, the platelets were stimulated by addition of thrombin (final concentration 0.2 unit/ml; made by Mochida Pharmaceutical Co.) and the aggregation inhibiting activity was estimated by observation of the aggregation reaction using an aggregometer (made by Briston Co.).
The results obtained are shown in Table 2 in terms of IC50 (50% inhibition concentration in M).

aldose reductase = biological target: T1, aldose reductase (Rattus norvegicus, UniProt P07943); assay: Aldose reductase inhibiting activity; assay type: biochemical, rat (Wistar strain male, eye lens); conditions: rat lens crude enzyme; DL-glyceraldehyde 10 mM, NADPH 0.104 mM, pH 6.2; Table 3; read-out: IC50 (50% inhibition concentration), aldose reductase
T1 construct: the supernatant was used as the crude enzyme solution; from tissue; host or cells: eye lens of male Wistar rats, 10,000 g supernatant of the homogenate
Method: Thus, Wistar strain male rats were sacrificed by decapitation, the lenses were excised and homogenized with a 0.1M phosphate buffer [pH 6.8; containing 1 mM of mercaptoethanol and 1 mM of nicotinamide-adenine dinucleotide phosphate (NADP)]. The homogenate was then centrifuged at 10,000 g for 15 minutes and the supernatant was used as the crude enzyme solution.
To this buffer solution, there was added 15 μl of each of solutions of each test compound in varied concentrations, followed by addition of 25 μl of the crude enzyme solution prepared in advance, to thereby initiate the reaction.

[2] = Acute toxicity in mice (oral); conditions: mouse, in vivo, oral gavage in 10% gum arabic, 2 weeks
[3] = 2 min, washed rabbit platelets 6×10^8 cells/ml, thrombin 0.2 unit/ml, 37° C., 2 minutes incubation, read-out: IC50 (50% inhibition concentration), platelet aggregation
[4] = read-out: concentration that inhibited the thrombin-induced aggregation of washed rabbit platelets by 50%

Row | SMILES | pIC50 [1, 3] | pIC50 (aldose reductase) | platelet aggregation inhibiting activity (in words) [1] | pIC50 [1, 4] | platelet aggregation inhibiting activity relative to Dipyridamole (Persantine) [1] | LD50 at 336 h [2]
1 | CC=CC=C1SC(=S)N(CC(=O)O)C1=O [Compound No. 7, 3-Carboxymethyl-5-(2-butenylidene)rhodanine] | 4.70 | 7.15 | noticeably strong platelet aggregation inhibiting activity | 4.40 to 4.70 | about 10 times | 3500 to 5000 mg/kg
2 | CCCC=CC=C1SC(=S)N(CC(=O)O)C1=O [Compound No. 10, 3-Carboxymethyl-5-(2-hexenylidene)rhodanine] | 4.52 | 7.40 | noticeably strong platelet aggregation inhibiting activity | 4.40 to 4.70 | about 10 times | 3500 to 5000 mg/kg
3 | CC=CC=CC=C1SC(=S)N(CC(=O)O)C1=O [Compound No. 11, 3-Carboxymethyl-5-(2,4-hexadienylidene)rhodanine] | 4.70 | 7.34 | noticeably strong platelet aggregation inhibiting activity | 4.40 to 4.70 | about 10 times | 3500 to 5000 mg/kg
4 | CC(C)=CCCC(C)=CCCC(C)=CCCC(C)=CC=C1SC(=S)N(CC(=O)O)C1=O [Compound No. 13, 3-Carboxymethyl-5-(3,7,11,15-tetramethyl-2,6,10,14-hexadecatetraenylidene)rhodanine] | 4.40 | 6.19 | noticeably strong platelet aggregation inhibiting activity | 4.40 to 4.70 | about 10 times | 3500 to 5000 mg/kg
5 | CCCCCCCCCCC=C1SC(=S)N(CC(=O)O)C1=O [compound 4, 3-Carboxymethyl-5-undecylidenerhodanine] | < 3.52 | 6.52 | – | – | – | –
6 | CCCCCC=C1SC(=S)N(CC(=O)O)C1=O [compound 5, 3-Carboxymethyl-5-n-hexylidenerhodanine] | < 3.52 | 6.89 | – | – | – | –
7 | CC(C)=CCCC(C)=CC=C1SC(=S)N(CC(=O)O)C1=O [compound 12, 3-Carboxymethyl-5-(3,7-dimethyl-2,6-octadienylidene)rhodanine] | < 3.52 | – | – | – | – | 3500 to 5000 mg/kg

Continued, in another order:

Row | pIC50 [1, 3] | pIC50 (aldose reductase) | SMILES | platelet aggregation inhibiting activity (in words) [1] | pIC50 [1, 4] | platelet aggregation inhibiting activity relative to Dipyridamole (Persantine) [1] | LD50 at 336 h [2]
8 | < 3.52 | 6.70 | CCC=C1SC(=S)N(CC(=O)O)C1=O [Compound No. 1, 3-Carboxymethyl-5-propylidenerhodanine] | – | – | – | –
9 | 4.52 | 6.12 | C=CC=C1SC(=S)N(CC(=O)O)C1=O [Compound No. 6, 3-Carboxymethyl-5-allylidenerhodanine] | noticeably strong platelet aggregation inhibiting activity | 4.40 to 4.70 | about 10 times | –
10 | 4.70 | 6.89 | O=C(O)CN1C(=O)C(=CC=CCCl)SC1=S [Compound No. 8, 3-Carboxymethyl-5-(4-chloro-2-butenylidene)rhodanine] | noticeably strong platelet aggregation inhibiting activity | 4.40 to 4.70 | about 10 times | –
11 | < 3.52 | 6.85 | O=C(O)CN1C(=O)C(=CCCCCl)SC1=S [compound 2, 3-Carboxymethyl-5-(4-chlorobutylidene)rhodanine] | – | – | – | –
12 | < 3.52 | 7.00 | CC(C)(C)C=C1SC(=S)N(CC(=O)O)C1=O [compound 3, 3-Carboxymethyl-5-(2,2-dimethylpropylidene)rhodanine] | – | – | – | –
13 | < 3.40 | 7.00 | CC(C)=CC=C1SC(=S)N(CC(=O)O)C1=O [compound 9, 3-Carboxymethyl-5-(3-methyl-2-butenylidene)rhodanine] | – | – | – | –
